From US8252822B2, “Heterocyclic compounds and uses as anticancer agents” (Acea Biosciences, Inc., priority 2007, dated 2012) come the findings set out here.

Read-outs that look alike come from different tables or passages of the source. Some results are limits rather than exact numbers.

For one data set, the system named is 3T3. Kind of data set: RT-CES cell proliferation inhibition, 3T3. It is filed as cell-based. Conditions: Mus musculus, NIH3T3. From the text: (§1) The biological activity of compounds disclosed herein was monitored and profiled using the Real-Time Cell Electronic Sensing (RT-CES®) system from ACEA Biosciences, Inc. The RT-CES system utilizes cell-substrate impedance technology to monitor cellular behavior inside tissue culture wells in a microtiter plate format. The technology features in the integration of molecular and cell biology with microelectronics and is based on the electronic detection of biological assay process. The details of this cell electronic sensing technology and associated devices, systems and methods of use as described in U.S. provisional application No. 60/379,749, filed on Jul. […]
(§2) For measurement of cell-substrate or cell-electrode impedance using RT-CES technology, microelectrodes having appropriate geometries are fabricated onto the bottom surfaces of microtiter plate or similar device, facing into the wells. […] When there are changes to the biological status of the cells analogue electronic readout signals are measured automatically and in real time, and are converted to digital signals for processing and for analysis. In a RT-CES system, a cell index (arbitrary representation of change in impedance) is automatically derived and provided based on measured electrode impedance values. […]
(§3) To quantify cell status based on the measured cell-electrode impedance, a parameter termed Cell Index is derived. […]

In the next data set the test system is B16-luc. Kind of data set: RT-CES cell proliferation inhibition, B16-luc. Format: cell-based, Rat. The note with it: Mus musculus.
Text: as §1, §2, §3

Another data set deals with MCF7. In words: RT-CES cell proliferation inhibition, MCF7. Format: cell-based. Conditions: Homo sapiens.
Text: as §1, §2, §3

The test system of the next data set is HT1080. Kind of data set: RT-CES cell proliferation inhibition, HT1080. Format: cell-based. Conditions: Homo sapiens, HT-1080.
Text: as §1, §2, §3

The next data set relates to Bcap37. In words: RT-CES cell proliferation inhibition, Bcap37. It is filed as cell-based. The note with it: Homo sapiens.
Text: as §1, §2, §3

Data set [1] concerns murine Lewis lung cancer (LLC). Kind of data set: Anti-tumor activity against LLC mice model. It is filed as in vivo, C57 BL/6 mice. The note with it: 40 mg/kg; for Tumor Weight / Inhibition Rate (%): LLC, 12 days; for Tumor Weight: qod (Table 14); for Inhibition Rate (%): qod (Table 14; text qd); for Body Weight (g) Start: mouse, in vivo. As for the experimental part: ACEA100160 (2-(4-ethoxyphenyl)amino-4-(6-methylimidazo[1,2-a]pyrimidin-3-yl)thiazole) and ACEA 100162 (2-(4-ethoxyphenyl)amino-4-(6-methylimidazo[2,1-b]thiazol-5-yl)thiazole) are prepared at concentration of 8 mg/ml in solution containing 20% HP-beta-CD dextrose (D5W). The solvent HP-beta-CD solution is used as a vehicle negative control.
LLC: murine Lewis lung cancer cell line.
LLC cells were cultured in DMEM medium with 10% FBS to obtain the necessary cell number for injection subcutaneously (10^7 cells).
Under a sterilized condition, sacrifice the C57 BL/6 murine LLC bearing mice, separate tumor and put it into NS. Chop the tumor into fine pieces with sterilized scissors and then homogenate into cell suspension. Inject 0.2 ml cell suspension (10^6 cells) subcutaneously into the left flank on C57 BL/6 mice. On the first treatment day before iv or ip, implanted animals are randomly divided into seven groups as following. The drugs were administrated in the schedule of Table 13 respectively. The solvent HP-beta-CD solution is used as a vehicle negative control. Observe clinical signs at least daily.
Tumor weight was recorded. The tumor inhibitory rate was calculated as follows: inhibitory rate=1-Wt/W0, where Wt is the average weight of each drug treatment group and W0 is the average weight of negative control group. Results are given as mean±SD values from n animals. Comparisons between groups were made with Student's two-tailed t test and a P<0.05 was considered significant.

A further data set concerns MKN45. Kind of data set: RT-CES cell proliferation inhibition, MKN45. Format: cell-based. The note with it: Homo sapiens, MKN-45.
Text: as §1, §2, §3

In another data set the test system is H460. Kind of data set: RT-CES cell proliferation inhibition, H460. Conditions: Homo sapiens, NCI-H460. It is filed as cell-based.
Text: as §1, §2, §3

Another data set relates to SKOV3. Kind of data set: RT-CES cell proliferation inhibition, SKOV3. Conditions: Homo sapiens, SK-OV-3. Format: cell-based.
Text: as §1, §2, §3

In the case of `Br.CCOc1ccc(Nc2nc(-c3c(C)nc4sccn34)cs2)cc1` [Compound 27, 2-(4-ethoxyphenyl)amino-4-(6-methylimidazo[2,1-b]thiazol-5-yl)thiazole], the IC50 with 3T3 (3T3, 24 hrs, read-out: IC50 (24 hr)) is 20.6 nM; in the data set on 3T3 (3T3, 48 hrs, read-out: IC50 (48 hr)) it was 51.5 nM; in the data set with B16-luc (24 hrs, read-out: IC50 (24 hr)) it was 705 nM; with B16-luc (48 hrs, read-out: IC50 (48 hr)), 643 nM; with MCF7 (MCF7, 24 hrs, read-out: IC50 (24 hr)), above 200 nM; with MCF7 (MCF7, 48 hrs, read-out: IC50 (48 hr)), above 200 nM. Besides, the concentration for half-maximal inhibition (IC50) with HT1080 (HT1080, 24 hrs, read-out: IC50 (24 hr)) is 2.39 nM; with HT1080 (HT1080, 48 hrs, read-out: IC50 (48 hr)), 2.69 nM; with Bcap37 (Bcap37, 24 hrs, read-out: IC50 (24 hr)), 27.3 nM; in the data set with Bcap37 (Bcap37, 48 hrs, read-out: IC50 (48 hr)), 26 nM; in the data set with MKN45 (MKN45, 24 hrs, read-out: IC50 (24 hr)) it was above 200 nM; in the data set with MKN45 (MKN45, 48 hrs, read-out: IC50 (48 hr)) it was above 200 nM. The IC50 worked out at 12.3 nM in the data set with H460 (H460, 24 hrs after compound treatment, read-out: IC50 (24 hr)); 16 nM in the data set with H460 (H460, 48 hrs after compound treatment, read-out: IC50 (48 hr)); 19.8 nM in the data set with SKOV3 (SKOV3, 24 hrs, read-out: IC50 (24 hr)); 11.5 nM in the data set on SKOV3 (SKOV3, 48 hrs, read-out: IC50 (48 hr)). In addition, the “Tumor Weight” value in data set [1] (IP) came out at 0.70 ± 0.46 g; in data set [1] (IV), 0.91 ± 0.18 g. Moreover, the “Inhibition Rate (%)” value worked out at 39.2% in data set [1] (IP, listed as 162, 40 mg/kg); 39.15% in data set [1] (IP, listed as ACEA100162, 40 mg/kg); 25.5% in data set [1] (IV). The “Body Weight (g) Start” value is 19.0 ± 0.8 g in [1] (ip) and 18.5 ± 1.3 g in [1] (iv).
